# Experimental data as given in BigSolDB 2.1.
smiles,measurement,setting,value
CN1C(C(=O)Nc2ccccn2)=C(O)c2ccccc2S1(=O)=O,solubility (mole fraction),"in ethanol, 293.2 K",0.000103
same,solubility (mole fraction),"in ethanol, 298.2 K",0.000177
same,solubility (mole fraction),"in ethanol, 303.2 K",0.000334
same,solubility (mole fraction),"in ethanol, 308.2 K",0.000553
same,solubility (mole fraction),"in ethanol, 313.2 K",0.00078
same,solubility (mole fraction),"in ethyl acetate, 293.2 K",0.00426
same,solubility (mole fraction),"in ethyl acetate, 298.2 K",0.00497
same,solubility (mole fraction),"in ethyl acetate, 303.2 K",0.0057
same,solubility (mole fraction),"in ethyl acetate, 308.2 K",0.00661
same,solubility (mole fraction),"in ethyl acetate, 313.2 K",0.00741
